# Assay results as given in ChEMBL document CHEMBL5113525, “Discovery of the Novel 1H-Pyrrolo[2,3-b]pyridine Derivative as a Potent Type II CDK8 Inhibitor against Colorectal Cancer” (J Med Chem, 2022).
# The source made the active and inactive calls. No cut-off for these calls is given here.
# Assays:
# [1] = target: Serine/threonine-protein kinase pim-1 (Homo sapiens) (UniProt P11309); assay: Inhibition of human PIM1 at 1 uM relative to control
# [2] = target: BDNF/NT-3 growth factors receptor (Homo sapiens) (UniProt Q16620); assay: Inhibition of human TRKB at 1 uM relative to control
# [3] = MRT in Sprague-Dawley rat at 10 mg/kg, po measured upto 12 hrs by LC-MS/MS analysis; format: ADME, organism-based; settings: in vivo
# [4] = target: Citron Rho-interacting kinase (Homo sapiens) (UniProt O14578); assay: Inhibition of human CRIK at 1 uM relative to control
# [5] = target: Serine/threonine-protein kinase PAK 1 (Homo sapiens) (UniProt Q13153); assay: Inhibition of human PAK1 at 1 uM relative to control
# Chain of Serine/threonine-protein kinase PAK 1 (Homo sapiens) (Q13153 whole entry): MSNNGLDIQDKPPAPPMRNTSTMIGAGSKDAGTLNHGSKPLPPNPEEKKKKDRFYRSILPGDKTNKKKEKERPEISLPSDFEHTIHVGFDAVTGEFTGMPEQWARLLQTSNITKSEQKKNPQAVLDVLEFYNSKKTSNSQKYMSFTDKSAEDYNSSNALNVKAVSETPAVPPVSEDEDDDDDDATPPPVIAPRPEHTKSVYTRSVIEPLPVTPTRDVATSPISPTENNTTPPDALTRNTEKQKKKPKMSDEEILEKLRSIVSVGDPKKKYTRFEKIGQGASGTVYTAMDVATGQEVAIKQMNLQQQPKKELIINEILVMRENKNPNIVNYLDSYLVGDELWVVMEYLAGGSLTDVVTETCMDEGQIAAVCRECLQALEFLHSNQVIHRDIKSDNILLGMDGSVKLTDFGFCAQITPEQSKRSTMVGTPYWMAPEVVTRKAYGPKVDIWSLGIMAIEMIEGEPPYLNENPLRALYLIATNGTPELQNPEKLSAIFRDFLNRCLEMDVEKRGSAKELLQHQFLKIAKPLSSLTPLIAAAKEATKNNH
# [6] = target: Fibroblast growth factor receptor 3 (Homo sapiens) (UniProt P22607); assay: Inhibition of human FGFR3 at 1 uM relative to control
# Chain of Fibroblast growth factor receptor 3 (Homo sapiens) (P22607 23-806 limits assumed): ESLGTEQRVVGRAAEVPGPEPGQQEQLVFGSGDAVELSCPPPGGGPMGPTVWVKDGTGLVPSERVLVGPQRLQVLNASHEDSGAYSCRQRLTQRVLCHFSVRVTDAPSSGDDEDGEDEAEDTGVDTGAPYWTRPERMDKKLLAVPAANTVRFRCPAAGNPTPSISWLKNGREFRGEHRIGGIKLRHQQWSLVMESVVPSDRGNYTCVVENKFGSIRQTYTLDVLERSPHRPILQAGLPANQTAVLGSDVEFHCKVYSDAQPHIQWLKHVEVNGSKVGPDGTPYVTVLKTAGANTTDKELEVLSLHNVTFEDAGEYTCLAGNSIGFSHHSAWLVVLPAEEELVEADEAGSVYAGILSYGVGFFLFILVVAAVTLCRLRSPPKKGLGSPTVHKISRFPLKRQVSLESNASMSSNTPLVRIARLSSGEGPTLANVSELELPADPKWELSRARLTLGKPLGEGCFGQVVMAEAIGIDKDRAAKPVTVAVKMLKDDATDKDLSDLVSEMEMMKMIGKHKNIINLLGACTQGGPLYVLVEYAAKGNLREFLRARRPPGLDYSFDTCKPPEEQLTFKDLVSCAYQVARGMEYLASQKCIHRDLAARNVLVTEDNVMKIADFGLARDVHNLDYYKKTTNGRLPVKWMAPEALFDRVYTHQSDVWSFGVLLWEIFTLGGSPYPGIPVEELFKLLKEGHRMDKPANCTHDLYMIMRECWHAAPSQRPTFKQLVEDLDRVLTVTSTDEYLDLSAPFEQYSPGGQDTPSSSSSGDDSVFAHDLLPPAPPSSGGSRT
# [7] = target: Serine/threonine-protein kinase pim-2 (Homo sapiens) (UniProt Q9P1W9); assay: Inhibition of human PIM2 at 1 uM relative to control
# [8] = target: Hepatocyte growth factor receptor (Homo sapiens) (UniProt P08581); assay: Inhibition of human MET at 1 uM relative to control
# Chain of Hepatocyte growth factor receptor (Homo sapiens) (P08581 whole entry): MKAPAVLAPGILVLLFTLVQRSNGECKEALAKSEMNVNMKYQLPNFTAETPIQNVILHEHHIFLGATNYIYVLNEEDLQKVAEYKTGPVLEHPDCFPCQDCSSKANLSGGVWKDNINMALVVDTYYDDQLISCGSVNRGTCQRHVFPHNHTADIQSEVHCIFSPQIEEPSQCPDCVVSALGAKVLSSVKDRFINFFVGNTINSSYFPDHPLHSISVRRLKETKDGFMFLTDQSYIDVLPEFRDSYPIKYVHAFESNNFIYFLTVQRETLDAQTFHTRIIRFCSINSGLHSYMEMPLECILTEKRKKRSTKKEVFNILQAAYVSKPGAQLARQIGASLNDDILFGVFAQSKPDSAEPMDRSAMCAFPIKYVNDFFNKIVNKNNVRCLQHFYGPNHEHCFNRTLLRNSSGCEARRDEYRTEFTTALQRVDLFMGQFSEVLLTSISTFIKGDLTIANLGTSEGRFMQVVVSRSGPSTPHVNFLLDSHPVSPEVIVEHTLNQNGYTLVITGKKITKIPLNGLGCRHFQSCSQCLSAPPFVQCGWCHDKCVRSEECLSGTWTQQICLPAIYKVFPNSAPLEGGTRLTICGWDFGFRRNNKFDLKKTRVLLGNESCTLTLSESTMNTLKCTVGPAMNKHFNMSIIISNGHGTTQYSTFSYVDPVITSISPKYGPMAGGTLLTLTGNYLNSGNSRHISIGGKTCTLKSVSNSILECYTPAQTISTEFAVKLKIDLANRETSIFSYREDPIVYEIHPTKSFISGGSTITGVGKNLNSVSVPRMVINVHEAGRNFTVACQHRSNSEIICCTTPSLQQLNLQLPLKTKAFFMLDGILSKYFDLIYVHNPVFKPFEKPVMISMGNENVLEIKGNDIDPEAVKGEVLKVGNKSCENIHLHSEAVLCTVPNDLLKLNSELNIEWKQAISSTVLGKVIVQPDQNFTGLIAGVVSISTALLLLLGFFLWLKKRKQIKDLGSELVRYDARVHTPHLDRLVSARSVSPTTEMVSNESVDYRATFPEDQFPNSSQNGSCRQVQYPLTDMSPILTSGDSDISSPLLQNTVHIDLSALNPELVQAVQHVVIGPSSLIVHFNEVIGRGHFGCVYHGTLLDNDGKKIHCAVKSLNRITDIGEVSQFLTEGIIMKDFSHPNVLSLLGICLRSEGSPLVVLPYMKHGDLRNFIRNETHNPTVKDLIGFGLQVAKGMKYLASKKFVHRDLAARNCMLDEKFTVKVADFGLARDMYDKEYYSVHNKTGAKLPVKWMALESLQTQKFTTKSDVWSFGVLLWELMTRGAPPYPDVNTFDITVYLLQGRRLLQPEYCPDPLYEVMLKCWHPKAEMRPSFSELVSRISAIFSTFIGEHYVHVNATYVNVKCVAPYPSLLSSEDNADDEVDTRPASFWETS
# [9] = target: Aurora kinase C (Homo sapiens) (UniProt Q9UQB9); assay: Inhibition of human Aurora C at 1 uM relative to control
# [10] = target: Tyrosine-protein kinase JAK1 (Homo sapiens) (UniProt P23458); assay: Inhibition of human JAK1 at 1 uM relative to control
# [11] = Tmax in Sprague-Dawley rat at 10 mg/kg, po measured upto 12 hrs by LC-MS/MS analysis; format: ADME, organism-based; settings: in vivo
# [12] = target: Phosphatidylinositol 4-phosphate 3-kinase C2 domain-containing subunit alpha (Homo sapiens) (UniProt O00443); assay: Inhibition of human PI3K-C2-alpha at 1 uM relative to control
# [13] = Oral bioavailability in Sprague-Dawley rat at 10 mg/kg measured upto 12 hrs by LC-MS/MS analysis; format: ADME, organism-based; settings: in vivo
# [14] = target: Cyclin-dependent kinase 5/CDK5 activator 1 (Homo sapiens) (UniProt Q00535+Q15078); assay: Inhibition of human CDK5/p35 at 1 uM relative to control; format: protein-complex assay
# [15] = target: Catenin beta-1 (Homo sapiens) (UniProt P35222); assay: Inhibition of beta-catenin in human HCT-116 cells assessed as accumulation in cytoplasm incubated for 24 hrs by DAPI staining based immunofluorescence assay; format: cell-based
# [16] = target: Dual specificity protein kinase CLK2 (Homo sapiens) (UniProt P49760); assay: Inhibition of human CLK2 at 1 uM relative to control
# [17] = AUC(0 to infinity) in Sprague-Dawley rat at 5 mg/kg, iv measured upto 12 hrs by LC-MS/MS analysis; format: ADME, organism-based; set-up: time < 12 hrs, dose 5 mg/kg, route iv; settings: in vivo
# [18] = Half life in Sprague-Dawley rat at 10 mg/kg, po measured upto 12 hrs by LC-MS/MS analysis; format: ADME, organism-based; settings: in vivo
# [19] = Cmax in Sprague-Dawley rat at 5 mg/kg, iv measured upto 12 hrs by LC-MS/MS analysis; format: ADME, organism-based; set-up: dose 5 mg/kg, time < 12 hrs, route iv; settings: in vivo
# [20] = target: Mitogen-activated protein kinase 8 (Homo sapiens) (UniProt P45983); assay: Inhibition of human JNK1-alpha-2 at 1 uM relative to control
# [21] = target: Fibroblast growth factor receptor 4 (Homo sapiens) (UniProt P22455); assay: Inhibition of human FGFR4 at 1 uM relative to control
# [22] = target: Aurora kinase B (Homo sapiens) (UniProt Q96GD4); assay: Inhibition of human Aurora B at 1 uM relative to control
# [23] = target: Mitogen-activated protein kinase kinase kinase 9 (Homo sapiens) (UniProt P80192); assay: Inhibition of human MLK1 at 1 uM relative to control
# Chain of Mitogen-activated protein kinase kinase kinase 9 (Homo sapiens) (P80192 whole entry, looked up): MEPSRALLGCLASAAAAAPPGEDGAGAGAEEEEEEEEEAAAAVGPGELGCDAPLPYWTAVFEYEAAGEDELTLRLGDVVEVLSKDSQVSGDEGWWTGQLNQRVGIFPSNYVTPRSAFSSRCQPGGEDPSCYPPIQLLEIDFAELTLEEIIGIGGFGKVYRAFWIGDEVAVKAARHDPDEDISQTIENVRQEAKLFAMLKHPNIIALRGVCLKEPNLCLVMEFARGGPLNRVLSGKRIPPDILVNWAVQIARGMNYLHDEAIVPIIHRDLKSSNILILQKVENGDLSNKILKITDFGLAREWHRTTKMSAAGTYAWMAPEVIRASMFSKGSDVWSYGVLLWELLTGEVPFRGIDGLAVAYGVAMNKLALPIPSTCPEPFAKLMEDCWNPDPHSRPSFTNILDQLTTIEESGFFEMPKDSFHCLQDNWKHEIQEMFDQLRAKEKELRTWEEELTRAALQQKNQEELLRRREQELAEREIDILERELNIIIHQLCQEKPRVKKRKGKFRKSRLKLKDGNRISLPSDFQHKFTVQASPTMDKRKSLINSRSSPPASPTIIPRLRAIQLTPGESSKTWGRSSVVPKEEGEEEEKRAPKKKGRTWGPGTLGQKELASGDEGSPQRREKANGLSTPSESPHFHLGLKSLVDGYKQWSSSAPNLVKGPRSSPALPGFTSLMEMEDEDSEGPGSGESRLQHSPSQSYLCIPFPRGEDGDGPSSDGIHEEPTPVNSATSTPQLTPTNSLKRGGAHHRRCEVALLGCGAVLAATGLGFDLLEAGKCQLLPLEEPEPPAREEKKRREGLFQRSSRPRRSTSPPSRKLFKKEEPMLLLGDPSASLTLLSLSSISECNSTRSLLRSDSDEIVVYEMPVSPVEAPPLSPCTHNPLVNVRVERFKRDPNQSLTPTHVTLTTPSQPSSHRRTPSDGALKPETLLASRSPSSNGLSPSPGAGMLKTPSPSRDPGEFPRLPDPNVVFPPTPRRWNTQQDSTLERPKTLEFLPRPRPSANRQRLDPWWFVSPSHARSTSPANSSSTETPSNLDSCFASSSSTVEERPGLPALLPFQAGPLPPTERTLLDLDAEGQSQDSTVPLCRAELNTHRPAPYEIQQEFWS
# [24] = target: Serine/threonine-protein kinase pim-3 (Homo sapiens) (UniProt Q86V86); assay: Inhibition of human PIM3 at 1 uM relative to control
# [25] = target: Fibroblast growth factor receptor 2 (Homo sapiens) (UniProt P21802); assay: Inhibition of human FGFR2 at 1 uM relative to control
# [26] = target: Serine/threonine-protein kinase NLK (Homo sapiens) (UniProt Q9UBE8); assay: Inhibition of human NLK at 1 uM relative to control
# [27] = Half life in Sprague-Dawley rat at 5 mg/kg, iv measured upto 12 hrs by LC-MS/MS analysis; format: ADME, organism-based; settings: in vivo
# [28] = target: Epithelial discoidin domain-containing receptor 1 (Homo sapiens) (UniProt Q08345); assay: Inhibition of human DDR1 at 1 uM relative to control
# [29] = target: Fibroblast growth factor receptor 1 (Homo sapiens) (UniProt P11362); assay: Inhibition of human FGFR1 at 1 uM relative to control
# [30] = target: Serine/threonine-protein kinase B-raf (Homo sapiens) (UniProt P15056); assay: Inhibition of human BRAF at 1 uM relative to control
# [31] = target: High affinity nerve growth factor receptor (Homo sapiens) (UniProt P04629); assay: Inhibition of human TRKA at 1 uM relative to control
# Chain of High affinity nerve growth factor receptor (Homo sapiens) (P04629 33-796 limits assumed): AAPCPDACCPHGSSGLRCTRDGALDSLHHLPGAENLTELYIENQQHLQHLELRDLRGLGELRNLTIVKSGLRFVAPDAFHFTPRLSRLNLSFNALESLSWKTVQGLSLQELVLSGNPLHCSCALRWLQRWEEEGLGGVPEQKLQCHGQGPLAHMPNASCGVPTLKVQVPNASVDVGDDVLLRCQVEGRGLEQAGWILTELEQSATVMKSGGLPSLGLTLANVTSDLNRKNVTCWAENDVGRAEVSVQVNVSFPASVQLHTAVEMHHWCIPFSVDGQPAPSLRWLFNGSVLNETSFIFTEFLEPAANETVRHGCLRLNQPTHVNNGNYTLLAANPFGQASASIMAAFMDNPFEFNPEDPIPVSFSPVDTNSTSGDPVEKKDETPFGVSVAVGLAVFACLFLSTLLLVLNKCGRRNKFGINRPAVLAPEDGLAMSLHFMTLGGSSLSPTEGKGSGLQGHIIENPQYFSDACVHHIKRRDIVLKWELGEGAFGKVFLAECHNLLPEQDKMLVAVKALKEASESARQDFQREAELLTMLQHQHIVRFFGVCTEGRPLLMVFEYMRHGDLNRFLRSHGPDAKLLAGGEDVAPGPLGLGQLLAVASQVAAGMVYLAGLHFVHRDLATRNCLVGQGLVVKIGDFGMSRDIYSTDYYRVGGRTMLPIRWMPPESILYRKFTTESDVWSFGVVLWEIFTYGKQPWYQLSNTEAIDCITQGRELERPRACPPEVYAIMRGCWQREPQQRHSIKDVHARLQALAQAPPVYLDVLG
# [32] = target: Dual specificity protein kinase CLK3 (Homo sapiens) (UniProt P49761); assay: Inhibition of human CLK3 at 1 uM relative to control
# [33] = target: Tyrosine-protein kinase JAK3 (Homo sapiens) (UniProt P52333); assay: Inhibition of human JAK3 at 1 uM relative to control
# [34] = target: Epidermal growth factor receptor (Homo sapiens) (UniProt P00533); assay: Inhibition of human EGFR at 1 uM relative to control
# [35] = target: Tyrosine-protein kinase receptor UFO (Homo sapiens) (UniProt P30530); assay: Inhibition of human AXL at 1 uM relative to control
# [36] = target: Serine/threonine-protein kinase mTOR (Homo sapiens) (UniProt P42345); assay: Inhibition of human MTOR at 1 uM relative to control
# [37] = target: Tyrosine-protein kinase JAK2 (Homo sapiens) (UniProt O60674); assay: Inhibition of human JAK2 at 1 uM relative to control
# [38] = target: Receptor-type tyrosine-protein kinase FLT3 (Homo sapiens) (UniProt P36888); assay: Inhibition of human FLT3 at 1 uM relative to control
# [39] = target: 3-phosphoinositide-dependent protein kinase 1 (Homo sapiens) (UniProt O15530); assay: Inhibition of human PDK1 at 1 uM relative to control
# [40] = target: Discoidin domain-containing receptor 2 (Homo sapiens) (UniProt Q16832); assay: Inhibition of human DDR2 at 1 uM relative to control
# [41] = Clearance in Sprague-Dawley rat at 10 mg/kg, po measured upto 12 hrs by LC-MS/MS analysis; format: ADME, organism-based; settings: in vivo
# [42] = target: Dual specificity protein kinase CLK4 (Homo sapiens) (UniProt Q9HAZ1); assay: Inhibition of human CLK4 at 1 uM relative to control
# Chain of Dual specificity protein kinase CLK4 (Homo sapiens) (Q9HAZ1 whole entry, looked up): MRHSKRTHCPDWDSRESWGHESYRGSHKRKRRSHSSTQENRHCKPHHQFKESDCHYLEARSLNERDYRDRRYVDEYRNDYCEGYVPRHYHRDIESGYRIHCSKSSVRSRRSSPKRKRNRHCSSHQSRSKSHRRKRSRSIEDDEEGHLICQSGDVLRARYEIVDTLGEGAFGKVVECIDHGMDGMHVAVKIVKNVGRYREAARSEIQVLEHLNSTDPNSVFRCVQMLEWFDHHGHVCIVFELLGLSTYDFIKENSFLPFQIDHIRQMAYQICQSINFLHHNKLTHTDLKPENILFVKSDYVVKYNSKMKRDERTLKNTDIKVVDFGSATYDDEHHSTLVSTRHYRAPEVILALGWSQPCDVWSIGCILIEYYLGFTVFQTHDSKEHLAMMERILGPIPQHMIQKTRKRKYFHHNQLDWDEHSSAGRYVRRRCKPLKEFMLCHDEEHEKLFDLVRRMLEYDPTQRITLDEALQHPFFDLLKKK
# [43] = Clearance in Sprague-Dawley rat at 5 mg/kg, iv measured upto 12 hrs by LC-MS/MS analysis; format: ADME, organism-based; settings: in vivo
smiles,measurement,setting,value
Cc1ccc(NC(=O)CCc2cccc(-c3cnc4[nH]ccc4c3)c2)cc1C(F)(F)F,inhibition,[1],0%
same,inhibition,[2],24%
same,MRT,[3],2.02 h
same,inhibition,[4],1%
same,inhibition,[5],0%
same,inhibition,[6],0%
same,inhibition,[7],0%
same,inhibition,[8],0%
same,inhibition,[9],8%
same,inhibition,[10],9%
same,Tmax,[11],0.75 h
same,inhibition,[12],1%
same,bioavailability,[13],39.8%
same,inhibition,[14],0%
same,inhibition,[15],Active
same,inhibition,[16],9%
same,AUC,[17],983.09 ng·h/mL
same,half-life,[18],1.21 h
same,Cmax,[19],706 ng/mL
same,inhibition,[20],0%
same,inhibition,[21],0%
same,inhibition,[22],43%
same,inhibition,[23],7%
same,inhibition,[24],4%
same,inhibition,[25],0%
same,inhibition,[26],0%
same,half-life,[27],1.63 h
same,inhibition,[28],36%
same,inhibition,[29],0%
same,inhibition,[30],15%
same,inhibition,[31],25%
same,inhibition,[32],2%
same,inhibition,[33],10%
same,inhibition,[34],0%
same,inhibition,[35],38%
same,inhibition,[36],5%
same,inhibition,[37],10%
same,inhibition,[38],48%
same,inhibition,[39],0%
same,inhibition,[40],23%
same,CL/F,[41],154 mL/min/kg
same,inhibition,[42],6%
same,CL,[43],188.7 mL/min/kg
